Data from publication PMC5218480 (PLoS ONE, 2017).

Test system: MV-4-11 cells
Experiment: Gene expression microarray analysis (Affymetrix PrimeView) and GSEA
Format: cell-based, human
Design: RFU PODN (11730768_x_at) / Fold change /veh PODN (11730768_x_at) / RFU LINC00158 (11744669_a_at) / Fold change /veh LINC00158 (11744669_a_at) / RFU DUSP10 (11751237_a_at) / Fold change /veh DUSP10 (11751237_a_at) / RFU ID3 (11757404_x_at) / Fold change /veh ID3 (11757404_x_at) / RFU PLEKHG5 (11737974_s_at) / Fold change /veh PLEKHG5 (11737974_s_at) / RFU LRRC4B (11730491_at) / Fold change /veh LRRC4B (11730491_at) / RFU GIMAP4 (11747438_a_at) / Fold change /veh GIMAP4 (11747438_a_at) / RFU KRT8 (11758183_x_at) / Fold change /veh KRT8 (11758183_x_at) / RFU CNN1 (11734310_a_at) / Fold change /veh CNN1 (11734310_a_at) / RFU VPS37D (11726825_at) / Fold change /veh VPS37D (11726825_at) / RFU C10orf10 (11716522_x_at) / Fold change /veh C10orf10 (11716522_x_at) / RFU KIR2DL2 /// KIR2DL4 /// KIR2DL5A /// KIR2DL5B /// KIR2DS1 /// KIR2DS2 /// KIR2DS3 /// KIR2DS4 /// KIR3DL3 /// KIR3DL3 /// KIR3DS1 (11738374_at) / Fold change /veh KIR2DL2 /// KIR2DL4 /// KIR2DL5A /// KIR2DL5B /// KIR2DS1 /// KIR2DS2 /// KIR2DS3 /// KIR2DS4 /// KIR3DL3 /// KIR3DL3 /// KIR3DS1 (11738374_at) / RFU C1QL1 (11718748_at) / Fold change /veh C1QL1 (11718748_at) / RFU TMPRSS4 (11747572_a_at) / Fold change /veh TMPRSS4 (11747572_a_at) / RFU HAMP (11756126_x_at) / Fold change /veh HAMP (11756126_x_at) / RFU RNFT2 (11725882_a_at) / Fold change /veh RNFT2 (11725882_a_at) / RFU NR4A2 (11747474_a_at) / Fold change /veh NR4A2 (11747474_a_at) / RFU ABCC12 (11746883_a_at) / Fold change /veh ABCC12 (11746883_a_at) / RFU TMEM136 (11760407_x_at) / Fold change /veh TMEM136 (11760407_x_at) / RFU CLDN22 /// WWC2 (11732394_at) / Fold change /veh CLDN22 /// WWC2 (11732394_at) / RFU HLA-DPB1 (11760878_x_at) / Fold change /veh HLA-DPB1 (11760878_x_at) / RFU SPINT1 (11716480_a_at) / Fold change /veh SPINT1 (11716480_a_at) / RFU GAP43 (11754022_s_at) / Fold change /veh GAP43 (11754022_s_at) / RFU A4GNT (11735810_at) / Fold change /veh A4GNT (11735810_at) / RFU PRB3 (11715151_x_at) / Fold change /veh PRB3 (11715151_x_at) / RFU TUBB4B (11761932_at) / Fold change /veh TUBB4B (11761932_at) / RFU CAPN14 (11732068_a_at) / Fold change /veh CAPN14 (11732068_a_at) / RFU TMCC2 (11721928_a_at) / Fold change /veh TMCC2 (11721928_a_at) / RFU IRGQ (11745062_a_at) / Fold change /veh IRGQ (11745062_a_at) / RFU FAM174B (11720279_a_at) / Fold change /veh FAM174B (11720279_a_at) / RFU TMPRSS4 (11748680_a_at) / Fold change /veh TMPRSS4 (11748680_a_at) / RFU FAM212B (11763350_a_at) / Fold change /veh FAM212B (11763350_a_at) / RFU PLEKHG5 (11743358_a_at) / Fold change /veh PLEKHG5 (11743358_a_at) / RFU ZSCAN30 (11745921_a_at) / Fold change /veh ZSCAN30 (11745921_a_at) / RFU CMKLR1 (11741424_a_at) / Fold change /veh CMKLR1 (11741424_a_at) / RFU LOC101060620 /// MAPK8IP1 (11723275_at) / Fold change /veh LOC101060620 /// MAPK8IP1 (11723275_at) / RFU SPTSSB (11747773_x_at) / Fold change /veh SPTSSB (11747773_x_at) / RFU PRSS12 (11739890_at) / Fold change /veh PRSS12 (11739890_at) / RFU BIN1 (11741810_x_at) / Fold change /veh BIN1 (11741810_x_at) / RFU WNT11 (11732464_a_at) / Fold change /veh WNT11 (11732464_a_at) / RFU C10orf10 (11716521_a_at) / Fold change /veh C10orf10 (11716521_a_at) / RFU C5orf56 (11738089_at) / Fold change /veh C5orf56 (11738089_at) / RFU CYB561 (11721691_x_at) / Fold change /veh CYB561 (11721691_x_at) / RFU ANKRD19P (11752326_a_at) / Fold change /veh ANKRD19P (11752326_a_at) / RFU OR2T12 /// OR2T33 /// OR2T8 (11738714_s_at) / Fold change /veh OR2T12 /// OR2T33 /// OR2T8 (11738714_s_at) / RFU VCAN (11748164_a_at) / Fold change /veh VCAN (11748164_a_at) / RFU JSRP1 (11732532_at) / Fold change /veh JSRP1 (11732532_at) / RFU KRTAP10-11 (11738290_x_at) / Fold change /veh KRTAP10-11 (11738290_x_at) / RFU MYO3A (11730013_a_at) / Fold change /veh MYO3A (11730013_a_at) / RFU EBF3 (11725865_a_at) / Fold change /veh EBF3 (11725865_a_at) / RFU CAMK2N1 (11719241_x_at) / Fold change /veh CAMK2N1 (11719241_x_at) / RFU C5orf56 (11738088_a_at) / Fold change /veh C5orf56 (11738088_a_at) / RFU OLFML3 (11715873_a_at) / Fold change /veh OLFML3 (11715873_a_at) / RFU LOC100653217 /// NTM (11731650_a_at) / Fold change /veh LOC100653217 /// NTM (11731650_a_at) / RFU MAPK11 (11762145_a_at) / Fold change /veh MAPK11 (11762145_a_at) / RFU FIZ1 (11724087_x_at) / Fold change /veh FIZ1 (11724087_x_at) / RFU OASL (11726364_x_at) / Fold change /veh OASL (11726364_x_at) / RFU SOX15 (11748057_x_at) / Fold change /veh SOX15 (11748057_x_at) / RFU CD79A (11719716_a_at) / Fold change /veh CD79A (11719716_a_at) / RFU HIST1H1D (11736915_at) / Fold change /veh HIST1H1D (11736915_at) / RFU CASKIN2 (11723855_a_at) / Fold change /veh CASKIN2 (11723855_a_at) / RFU LOC730098 (11760151_x_at) / Fold change /veh LOC730098 (11760151_x_at) / RFU OR4N2 (11742367_at) / Fold change /veh OR4N2 (11742367_at) / RFU PRRT2 (11749266_a_at) / Fold change /veh PRRT2 (11749266_a_at) / RFU SNX32 (11753110_a_at) / Fold change /veh SNX32 (11753110_a_at) / RFU CDHR5 (11726645_a_at) / Fold change /veh CDHR5 (11726645_a_at) / RFU RCAN1 (11760418_a_at) / Fold change /veh RCAN1 (11760418_a_at) / RFU FAM167A (11723789_a_at) / Fold change /veh FAM167A (11723789_a_at) / RFU FAM26E (11764081_at) / Fold change /veh FAM26E (11764081_at) / RFU ISYNA1 (11749810_s_at) / Fold change /veh ISYNA1 (11749810_s_at) / RFU ACY1 (11761880_at) / Fold change /veh ACY1 (11761880_at) / RFU 11764098_at / Fold change /veh 11764098_at / RFU SAMD14 (11745864_x_at) / Fold change /veh SAMD14 (11745864_x_at) / RFU NPB (11741838_a_at) / Fold change /veh NPB (11741838_a_at) / RFU TMPRSS6 (11731388_a_at) / Fold change /veh TMPRSS6 (11731388_a_at) / RFU KRTAP10-2 (11738614_at) / Fold change /veh KRTAP10-2 (11738614_at) / RFU ARHGAP8 /// PRR5-ARHGAP8 (11727945_x_at) / Fold change /veh ARHGAP8 /// PRR5-ARHGAP8 (11727945_x_at) / RFU KRTAP5-7 /// NADSYN1 (11734609_at) / Fold change /veh KRTAP5-7 /// NADSYN1 (11734609_at) / RFU RASL12 (11751679_a_at) / Fold change /veh RASL12 (11751679_a_at) / RFU CDKN2B (11736163_a_at) / Fold change /veh CDKN2B (11736163_a_at) / RFU PRF1 (11729649_at) / Fold change /veh PRF1 (11729649_at) / RFU, ZNF638 /// ZNF638-IT1 / Fold change vs veh, ZNF638 /// ZNF638-IT1 / RFU, PANK3 / Fold change vs veh, PANK3 / RFU, SH3YL1 / Fold change vs veh, SH3YL1 / RFU, ZEB2 / Fold change vs veh, ZEB2 / RFU, NRIP1 / Fold change vs veh, NRIP1 / RFU, PTTG1IP / Fold change vs veh, PTTG1IP / RFU, CAPN2 / Fold change vs veh, CAPN2 / RFU, MED14 / Fold change vs veh, MED14 / RFU, SNORA58 / Fold change vs veh, SNORA58 / RFU, C1orf63 / Fold change vs veh, C1orf63 / RFU, LRRFIP1 / Fold change vs veh, LRRFIP1 / RFU, NDUFAF7 / Fold change vs veh, NDUFAF7 / RFU, SLC12A2 / Fold change vs veh, SLC12A2 / RFU, IBTK / Fold change vs veh, IBTK / RFU, ESF1 / Fold change vs veh, ESF1 / Fold change vs veh, TMEM50B / RFU, TAOK1 / Fold change vs veh, TAOK1 / RFU, ACBD3 / Fold change vs veh, ACBD3 / RFU, TMA16 / Fold change vs veh, TMA16 / RFU, RWDD3 / Fold change vs veh, RWDD3 / RFU, BCAT1 / Fold change vs veh, BCAT1 / RFU, EDEM3 / Fold change vs veh, EDEM3 / RFU, TMEM33 / Fold change vs veh, TMEM33 / RFU, WDR75 / Fold change vs veh, WDR75 / RFU, AHCTF1 / Fold change vs veh, AHCTF1 / RFU, TFRC / Fold change vs veh, TFRC / RFU, ZDHHC17 / Fold change vs veh, ZDHHC17 / RFU, NOM1 / Fold change vs veh, NOM1 / RFU, ARL8B / Fold change vs veh, ARL8B / RFU, ZBTB11 / Fold change vs veh, ZBTB11 / RFU, TAMM41 / Fold change vs veh, TAMM41 / RFU, KIAA1704 /// LOC100996395 / Fold change vs veh, KIAA1704 /// LOC100996395 / RFU, ING1 / Fold change vs veh, ING1 / RFU, TRMT61B / Fold change vs veh, TRMT61B / RFU, FUBP3 / Fold change vs veh, FUBP3 / RFU, TP53 / Fold change vs veh, TP53 / RFU, TNKS2 / Fold change vs veh, TNKS2 / RFU, ZFP14 / Fold change vs veh, ZFP14 / RFU, ACTR2 / Fold change vs veh, ACTR2 / RFU, PPP3R1 / Fold change vs veh, PPP3R1 / RFU, PIK3R1 / Fold change vs veh, PIK3R1 / RFU, HNRNPA1 / Fold change vs veh, HNRNPA1 / RFU, RNF170 / Fold change vs veh, RNF170 / RFU, ZNF28 / Fold change vs veh, ZNF28 / RFU, RNGTT / Fold change vs veh, RNGTT / RFU, OGT / Fold change vs veh, OGT / RFU, BRD1 / Fold change vs veh, BRD1 / RFU, MARS / Fold change vs veh, MARS / RFU, ZNF655 / Fold change vs veh, ZNF655 / RFU, FAHD1 / Fold change vs veh, FAHD1 / RFU, BDP1 / Fold change vs veh, BDP1 / RFU, LRRCC1 / Fold change vs veh, LRRCC1 / RFU, ARID1A / Fold change vs veh, ARID1A / RFU, ZNF146 / Fold change vs veh, ZNF146 / RFU, ZNF330 / Fold change vs veh, ZNF330 / RFU, GPN3 / Fold change vs veh, GPN3 / RFU, C9orf123 / Fold change vs veh, C9orf123 / RFU, N4BP2L2 / Fold change vs veh, N4BP2L2 / RFU, ARFIP1 / Fold change vs veh, ARFIP1 / RFU, FAM179B / Fold change vs veh, FAM179B / RFU, BCL10 / Fold change vs veh, BCL10 / RFU, UHRF1BP1L / Fold change vs veh, UHRF1BP1L / RFU, BET1 / Fold change vs veh, BET1 / RFU, CNOT2 / Fold change vs veh, CNOT2 / RFU, ZNF268 / Fold change vs veh, ZNF268 / Fold change vs veh, ZNF507 / RFU, DGCR2 / Fold change vs veh, DGCR2 / RFU, WDSUB1 / Fold change vs veh, WDSUB1 / Fold change vs veh, HSP90B1 /// MIR3652 / RFU, ADSS / Fold change vs veh, ADSS / RFU, GK / Fold change vs veh, GK / RFU, ZNF148 / Fold change vs veh, ZNF148 / RFU, TAF9 / Fold change vs veh, TAF9 / RFU, SLC1A5 / Fold change vs veh, SLC1A5 / RFU, SLMO2 / Fold change vs veh, SLMO2 / RFU, ABCC4 / Fold change vs veh, ABCC4 / RFU, LOC101060439 /// RAP1B / Fold change vs veh, LOC101060439 /// RAP1B / RFU, RFX7 / Fold change vs veh, RFX7 / RFU, GTPBP10 / Fold change vs veh, GTPBP10 / RFU, CNEP1R1 / Fold change vs veh, CNEP1R1 / RFU, BIVM-ERCC5 /// ERCC5 / Fold change vs veh, BIVM-ERCC5 /// ERCC5 / RFU, ILF3 / Fold change vs veh, ILF3 / RFU 11762660_at / Fold change /veh 11762660_at / RFU VCAN (11757783_s_at) / Fold change /veh VCAN (11757783_s_at) / RFU DDX43 (11728927_at) / Fold change /veh DDX43 (11728927_at) / RFU KRT8 (11758188_x_at) / Fold change /veh KRT8 (11758188_x_at) / RFU NKD1 (11759106_at) / Fold change /veh NKD1 (11759106_at) / RFU SRD5A1 (11742802_a_at) / Fold change /veh SRD5A1 (11742802_a_at) / RFU TPSAB1 /// TPSB2 (11721975_s_at) / Fold change /veh TPSAB1 /// TPSB2 (11721975_s_at) / RFU GSTM3 (11746129_a_at) / Fold change /veh GSTM3 (11746129_a_at) / RFU IL23R (11737362_x_at) / Fold change /veh IL23R (11737362_x_at) / RFU TMEM51 (11727254_a_at) / Fold change /veh TMEM51 (11727254_a_at) / RFU PIWIL2 (11732686_x_at) / Fold change /veh PIWIL2 (11732686_x_at) / RFU ORM1 (11744905_x_at) / Fold change /veh ORM1 (11744905_x_at) / RFU CCDC152 (11743942_at) / Fold change /veh CCDC152 (11743942_at) / RFU ECM1 (11717891_a_at) / Fold change /veh ECM1 (11717891_a_at) / RFU IL23R (11748794_a_at) / Fold change /veh IL23R (11748794_a_at) / RFU TNFAIP8L3 (11732012_x_at) / Fold change /veh TNFAIP8L3 (11732012_x_at) / RFU MBOAT4 (11741988_at) / Fold change /veh MBOAT4 (11741988_at) / RFU 11764193_at / Fold change /veh 11764193_at / RFU TMEM53 (11763286_at) / Fold change /veh TMEM53 (11763286_at) / RFU MAGEB2 (11727129_at) / Fold change /veh MAGEB2 (11727129_at) / RFU TMEM200A (11744735_a_at) / Fold change /veh TMEM200A (11744735_a_at) / RFU CCDC152 (11751479_a_at) / Fold change /veh CCDC152 (11751479_a_at) / RFU FAM211A (11726209_a_at) / Fold change /veh FAM211A (11726209_a_at) / RFU RGS16 (11746705_a_at) / Fold change /veh RGS16 (11746705_a_at) / RFU VCAN (11755009_s_at) / Fold change /veh VCAN (11755009_s_at) / RFU RHOB (11743442_s_at) / Fold change /veh RHOB (11743442_s_at) / RFU RGS16 (11720943_a_at) / Fold change /veh RGS16 (11720943_a_at) / RFU RGS16 (11720944_at) / Fold change /veh RGS16 (11720944_at) / RFU, VPS4B / Fold change vs veh, VPS4B / RFU, CREB1 / Fold change vs veh, CREB1 / RFU, DNAJC13 / Fold change vs veh, DNAJC13 / RFU, GNAQ / Fold change vs veh, GNAQ / RFU, CDK5R1 / Fold change vs veh, CDK5R1 / RFU, ZRANB3 / Fold change vs veh, ZRANB3 / RFU, CUL4A / Fold change vs veh, CUL4A / RFU, CCNY / Fold change vs veh, CCNY / RFU, UFL1 / Fold change vs veh, UFL1 / RFU, COG3 / Fold change vs veh, COG3 / RFU, DIAPH2 / Fold change vs veh, DIAPH2 / RFU, SKA2 / Fold change vs veh, SKA2 / RFU, AFF3 / Fold change vs veh, AFF3 / RFU, LMF1 / Fold change vs veh, LMF1 / RFU, IPO11 / Fold change vs veh, IPO11 / RFU, DFFB / Fold change vs veh, DFFB / RFU, FOXP1 / Fold change vs veh, FOXP1 / RFU, CARD8 / Fold change vs veh, CARD8 / RFU, STRN3 / Fold change vs veh, STRN3 / RFU, ADK / Fold change vs veh, ADK / RFU, RASSF2 / Fold change vs veh, RASSF2 / RFU, WIPF1 / Fold change vs veh, WIPF1 / RFU, LARP1B / Fold change vs veh, LARP1B / RFU, RASA1 / Fold change vs veh, RASA1 / RFU, RB1 / Fold change vs veh, RB1 / RFU, PPFIA1 / Fold change vs veh, PPFIA1 / RFU, MAT2A / Fold change vs veh, MAT2A / RFU, CCT5 / Fold change vs veh, CCT5 / RFU, WDR92 / Fold change vs veh, WDR92 / RFU, CUX1 / Fold change vs veh, CUX1 / RFU, TTC7A / Fold change vs veh, TTC7A / RFU, TMEM135 / Fold change vs veh, TMEM135 / RFU, DEPTOR / Fold change vs veh, DEPTOR / RFU, CPM / Fold change vs veh, CPM / RFU, DNAJB6 / Fold change vs veh, DNAJB6 / RFU, CACNA2D3 / Fold change vs veh, CACNA2D3 / RFU, DTX4 / Fold change vs veh, DTX4 / RFU, TFCP2 / Fold change vs veh, TFCP2 / RFU, GMCL1 /// GMCL1P1 / Fold change vs veh, GMCL1 /// GMCL1P1 / RFU, AEBP2 / Fold change vs veh, AEBP2 / RFU, SNHG1 /// SNORD22 /// SNORD25 /// SNORD26 /// SNORD27 /// SNORD28 /// SNORD29 /// SNORD31 / Fold change vs veh, SNHG1 /// SNORD22 /// SNORD25 /// SNORD26 /// SNORD27 /// SNORD28 /// SNORD29 /// SNORD31 / Fold change (Aza/veh), C12orf56 (ProbeSet 11735607_a_at) / Fold change (ACY-1035/veh), C12orf56 (ProbeSet 11735607_a_at) / Fold change (Aza/veh), FGFR1OP (ProbeSet 11751329_s_at) / Fold change (ACY-1035/veh), FGFR1OP (ProbeSet 11751329_s_at) / Fold change (Aza/veh), VPS36 (ProbeSet 11739960_a_at) / Fold change (ACY-1035/veh), VPS36 (ProbeSet 11739960_a_at) / RFU SYPL1 (11715823_x_at) / Fold change /veh SYPL1 (11715823_x_at) / RFU IGFBP7 (11715501_s_at) / Fold change /veh IGFBP7 (11715501_s_at) / RFU REEP3 (11722064_at) / Fold change /veh REEP3 (11722064_at) / RFU IGLL1 (11728026_x_at) / Fold change /veh IGLL1 (11728026_x_at): dose or concentration left out as unconfirmed
Conditions: ProbeSet 11725901_x_at; LIST B

## Nc1ncn([C@@H]2O[C@H](CO)[C@@H](O)[C@H]2O)c(=O)n1 [azacitidine]
  RFU, RWDD3: 20.92 RFU
